{"source": "ChEMBL document CHEMBL1141069", "about": "“Impact of induced fit on ligand binding to the androgen receptor: a multidimensional QSAR study to predict endocrine-disrupting effects of environmental chemicals” (J Med Chem, 2005)", "note": "pIC50: −log10 of the molar value.", "data": [{"target": "T1, Androgen receptor (Rattus norvegicus, UniProt P15207)", "T1 sequence (P15207 whole entry)": "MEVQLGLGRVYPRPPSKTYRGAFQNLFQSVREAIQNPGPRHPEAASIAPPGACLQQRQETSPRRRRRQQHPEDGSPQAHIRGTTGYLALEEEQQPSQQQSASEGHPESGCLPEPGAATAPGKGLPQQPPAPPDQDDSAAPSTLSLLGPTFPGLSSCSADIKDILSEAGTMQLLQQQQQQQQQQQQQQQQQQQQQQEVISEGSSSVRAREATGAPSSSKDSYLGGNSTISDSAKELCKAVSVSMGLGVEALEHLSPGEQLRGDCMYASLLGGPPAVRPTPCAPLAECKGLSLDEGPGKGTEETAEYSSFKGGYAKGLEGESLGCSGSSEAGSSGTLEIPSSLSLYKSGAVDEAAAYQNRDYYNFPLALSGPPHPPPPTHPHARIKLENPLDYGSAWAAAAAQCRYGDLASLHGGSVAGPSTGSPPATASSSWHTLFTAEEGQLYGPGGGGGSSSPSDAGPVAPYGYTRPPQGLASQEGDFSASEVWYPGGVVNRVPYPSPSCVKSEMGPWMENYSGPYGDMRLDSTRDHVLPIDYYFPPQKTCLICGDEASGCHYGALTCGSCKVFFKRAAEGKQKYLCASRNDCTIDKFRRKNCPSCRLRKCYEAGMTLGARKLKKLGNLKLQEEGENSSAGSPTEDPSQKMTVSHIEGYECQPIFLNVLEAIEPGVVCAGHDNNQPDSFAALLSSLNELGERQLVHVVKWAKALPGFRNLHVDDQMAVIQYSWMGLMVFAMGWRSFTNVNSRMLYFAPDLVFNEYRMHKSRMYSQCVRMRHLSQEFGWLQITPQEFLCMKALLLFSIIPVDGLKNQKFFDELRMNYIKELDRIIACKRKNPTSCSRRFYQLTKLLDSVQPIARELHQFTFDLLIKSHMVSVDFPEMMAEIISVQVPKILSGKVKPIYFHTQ", "values": [{"smiles": "O=C1CC(c2ccccc2)Oc2ccccc21", "note": "(stereo unspecified) [FLAVANONE]", "pIC50": 4.26}, {"smiles": "O=c1cc(-c2ccccc2)oc2ccc(O)cc12", "note": "[6-HYDROXYFLAVONE]", "pIC50": 3.74}, {"smiles": "O=c1c(-c2ccc(O)cc2)coc2cc(O)cc(O)c12", "note": "[GENISTEIN]", "pIC50": 4.07}, {"smiles": "Oc1ccc(OCc2ccccc2)cc1", "note": "[MONOBENZONE]", "pIC50": 3.63}, {"smiles": "Oc1ccc(/C=C/c2ccc(O)cc2)cc1", "note": "[TRANS-4,4'-DIHYDROXYSTILBENE]", "pIC50": 4.08}, {"smiles": "Oc1c(Cl)cc(-c2cc(Cl)c(O)c(Cl)c2)cc1Cl", "pIC50": 4.42}, {"smiles": "C[C@]12CCC(=O)C=C1CC[C@@H]1[C@@H]2[C@@H](O)C[C@]2(C=O)[C@@H](C(=O)CO)CC[C@@H]12", "note": "[ALDOSTERONE]", "pIC50": "< 4.37"}, {"smiles": "O=C(c1ccccc1)c1ccccc1", "note": "[BENZOPHENONE]", "pIC50": 3.89}, {"smiles": "O=C1CC(c2ccccc2)Oc2ccc(O)cc21", "note": "(stereo unspecified)", "pIC50": 4.73}, {"smiles": "CC1CC2=CC(=O)CC[C@@H]2[C@H]2CC[C@@]3(C)[C@@H](CC[C@]3(C)O)[C@H]12", "note": "(single isomer, unassigned) [MIBOLERONE]", "pIC50": 8.78}, {"smiles": "C[C@H]1CCCC(=O)CCCCCc2cc(O)cc(O)c2C(=O)O1", "note": "(stereo in doubt; form 1) [ZEARALANONE]", "pIC50": 4.37}, {"smiles": "O=c1cc(-c2ccccc2)oc2ccccc12", "note": "[FLAVONE]", "pIC50": 4.11}, {"smiles": "CCC(c1ccc(O)cc1)C(CC)c1ccc(OC)cc1", "note": "(stereo unspecified)", "pIC50": 4.89}, {"smiles": "C[C@]12CCCC[C@@H]1CC[C@@H]1[C@@H]2CC[C@]2(C)[C@@H](O)CC[C@@H]12", "pIC50": 7.96}, {"smiles": "Clc1ccc(-c2ccccc2Cl)cc1", "pIC50": 4.79}, {"smiles": "O=C1CC(c2ccc(O)cc2)Oc2ccccc21", "note": "(stereo unspecified) [4'-HYDROXY-FLAVANONE]", "pIC50": 4.24}, {"smiles": "c1ccc([C@H]2COC[C@H]2c2ccccc2)cc1", "pIC50": 4.54}, {"smiles": "Cc1ccc2c(c1)CC[C@@H]1[C@@H]2CC[C@]2(C)[C@@H](O)[C@@](C)(O)C[C@@H]12", "pIC50": 4.43}, {"smiles": "Oc1ccc([C@H]2COc3cc(O)ccc3C2)cc1", "note": "[AUS-131]", "pIC50": 4.13}, {"smiles": "ClC(Cl)=C(c1ccc(Cl)cc1)c1ccccc1Cl", "note": "[O,P'-DDE (1,1-(O,P'-DICHLORODIPHENYL)-2,2 DICHLOROETHENE)]", "pIC50": 4.69}, {"smiles": "O=C(O)COc1cc(Cl)c(Cl)cc1Cl", "note": "[2,4,5-TRICHLOROPHENOXYACETIC ACID]", "pIC50": 3.34}, {"smiles": "O=c1cc(-c2ccccc2)oc2cc(O)ccc12", "note": "[7-HYDROXYFLAVONE]", "pIC50": "< 4.37"}, {"smiles": "O=C1C[C@@H]2C(=O)CC[C@H]2[C@@H]2CC[C@H]3CCCC[C@@H]3[C@@H]12", "pIC50": 7.05}, {"smiles": "CCCCCCCOc1ccc(O)cc1", "pIC50": 4.83}, {"smiles": "C[C@]12CCC(=O)C=C1CC[C@@H]1[C@@H]2[C@@H](O)C[C@@]2(C)[C@H]1CC[C@]2(O)C(=O)CO", "note": "[HYDROCORTISONE]", "pIC50": 3.74}, {"smiles": "CC(C)(c1ccc(O)cc1)c1ccc(O)cc1", "note": "[BISPHENOL A]", "pIC50": 4.13}, {"smiles": "Oc1ccc(-c2cc(Cl)c(Cl)c(Cl)c2Cl)cc1", "pIC50": 4.79}, {"smiles": "COc1cc(C=O)ccc1O", "note": "[VANILLIN]", "pIC50": "< 3.37"}, {"smiles": "O=C(/C=C/c1ccc(O)cc1)c1ccccc1", "note": "[4-HYDROXYCHALCONE]", "pIC50": 4.32}, {"smiles": "C[C@]12CC[C@@H]3c4ccc(O)c(O)c4CC[C@H]3[C@@H]1CC[C@@H]2O", "pIC50": 5.59}, {"smiles": "C[C@]12CC[C@@H]3c4ccccc4CC[C@H]3[C@@H]1CC[C@@H]2O", "pIC50": 7.05}, {"smiles": "Cl/C=C(\\c1ccc(Cl)cc1)c1ccccc1Cl", "pIC50": 4.98}, {"smiles": "CCCCCCCCCc1ccc(OCCOCCO)cc1", "pIC50": 4.74}, {"smiles": "Clc1ccc(-c2ccc(Cl)cc2Cl)c(Cl)c1", "pIC50": 4.77}, {"smiles": "COc1cc(C(=C(Cl)Cl)c2ccc(O)cc2)ccc1O", "note": "[DIHYDROXYMETHOXYCHLOROLEFIN]", "pIC50": 5.20}, {"smiles": "C[C@]12CC[C@@H]3c4cc(O)c(O)cc4CC[C@H]3[C@@H]1CC[C@@H]2O", "pIC50": 5.07}, {"smiles": "C[C@]12CC[C@@H](O)C[C@@H]1CC[C@@H]1[C@@H]2CC[C@]2(C)C(O)CC[C@@H]12", "note": "(stereo partly specified)", "pIC50": 5.70}, {"smiles": "C[C@@]12CCC[C@H]1[C@@H]1CCc3cc(O)ccc3[C@H]1CC2", "pIC50": 4.38}, {"smiles": "Oc1ccc(/C=C/c2ccccc2)cc1", "note": "[(E)-4-STYRYLPHENOL]", "pIC50": 4.38}, {"smiles": "COc1ccc(C(=C(Cl)Cl)c2ccc(OC)cc2)cc1", "pIC50": 4.31}, {"smiles": "Cc1ccc2c(c1)CC[C@@H]1[C@@H]2CC[C@]2(C)[C@@H](O)[C@H](O)C[C@@H]12", "pIC50": 4.27}, {"smiles": "C/C(=C(/C)c1ccc(O)cc1)c1ccc(O)cc1", "note": "[DIMETHYLSTILBESTROL]", "pIC50": 4.85}, {"smiles": "ClC1=C(Cl)C2(Cl)C3C(Cl)C(Cl)CC3C1(Cl)C2(Cl)Cl", "note": "(stereo unspecified) [CHLORDANE]", "pIC50": 5.00}, {"smiles": "COc1ccc(C(=C(Cl)Cl)c2ccc(O)cc2)cc1", "pIC50": 4.69}, {"smiles": "CCN(CC)CCOc1ccc(/C(=C(\\Cl)c2ccccc2)c2ccccc2)cc1", "note": "[CLOMIPHENE]", "pIC50": 4.87}, {"smiles": "COc1ccc2c(c1)CCC(c1ccccc1)=C2c1ccc(OCCN2CCCC2)cc1", "note": "[NAFOXIDINE]", "pIC50": 4.89}, {"smiles": "O=C(c1ccccc1)c1ccc(O)cc1", "pIC50": 3.74}, {"smiles": "CCC(c1ccc(O)c(O)c1)C(CC)c1ccc(O)c(O)c1", "note": "(stereo unspecified)", "pIC50": 4.43}, {"smiles": "O=C(/C=C/c1ccccc1)c1ccc(O)cc1", "note": "[4'-HYDROXYCHALCONE]", "pIC50": 4.24}, {"smiles": "C[C@H]1CCCC(=O)CCCCCc2cc(O)cc(O)c2C(=O)O1", "note": "(stereo in doubt; form 2) [ZEARALANONE]", "pIC50": 5.00}, {"smiles": "CC/C(=C(\\c1ccc(O)cc1)c1ccc(OCCN(C)C)cc1)c1ccccc1", "pIC50": 5.03}, {"smiles": "O=C(c1ccc(O)cc1)c1ccc(O)cc1", "pIC50": 3.84}, {"smiles": "C[C@]12C=CC3=C4CCC(=O)C=C4CCC3C1CC[C@@H]2O", "note": "(stereo partly specified) [TRENBOLONE]", "pIC50": 8.58}, {"smiles": "O=S1OCC2C(CO1)C1(Cl)C(Cl)=C(Cl)C2(Cl)C1(Cl)Cl", "note": "(stereo unspecified) [ENDOSULFAN]", "pIC50": 4.63}, {"smiles": "C[C@]12CC[C@H]3[C@@H](CCC4(OC(=O)c5ccccc5)CC(=O)CC[C@]34C)[C@@H]1CC[C@@H]2O", "note": "(stereo partly specified) [DHT BENZOATE]", "pIC50": 6.59}, {"smiles": "O=C(/C=C/c1ccccc1)c1ccccc1", "note": "[CHALCONE]", "pIC50": 4.19}]}]}
